This passage reports IC50 and inhibition results from ChEMBL document CHEMBL3808366, “Facile and efficient synthesis and biological evaluation of 4-anilinoquinazoline derivatives as EGFR inhibitors” (Bioorg Med Chem Lett, 2016).

In assay [1] the test system is NCI-H1975. Kind of assay: Antiproliferative activity against human NCI-H1975 cells over expressing EGFR after 48 hrs by MTT assay. The class given is functional, cell-based. The following applies: NCI-H1975, 48 h. Background: Tetrazolium assays rely on reduction of a dye to a coloured formazan, in cell work by metabolically active cells.
The test system of assay [2] is HepG2. Kind of assay: Antiproliferative activity against human HepG2 cells over expressing EGFR after 48 hrs by MTT assay. It counts as functional, cell-based. The following applies: HepG2, 48 h.
Assay [3] in a line: Antiproliferative activity against human SMMC7721 cells over expressing EGFR after 48 hrs by MTT assay. It counts as functional, cell-based. The following applies: SMMC-7721, 48 h.
Assay [4] has as its target Epidermal growth factor receptor (Homo sapiens) (UniProt P00533). The note with it: NCI-H1975, at 1 µM.
Description: Inhibition of EGFR autophosphorylation at Tyr1068 site in human NCI-H1975 cells at 1 uM by western blotting analysis

Calls of active or inactive are those of the source. The rule behind the calls is not given here.

Sequence of Epidermal growth factor receptor (Homo sapiens) (P00533 whole entry): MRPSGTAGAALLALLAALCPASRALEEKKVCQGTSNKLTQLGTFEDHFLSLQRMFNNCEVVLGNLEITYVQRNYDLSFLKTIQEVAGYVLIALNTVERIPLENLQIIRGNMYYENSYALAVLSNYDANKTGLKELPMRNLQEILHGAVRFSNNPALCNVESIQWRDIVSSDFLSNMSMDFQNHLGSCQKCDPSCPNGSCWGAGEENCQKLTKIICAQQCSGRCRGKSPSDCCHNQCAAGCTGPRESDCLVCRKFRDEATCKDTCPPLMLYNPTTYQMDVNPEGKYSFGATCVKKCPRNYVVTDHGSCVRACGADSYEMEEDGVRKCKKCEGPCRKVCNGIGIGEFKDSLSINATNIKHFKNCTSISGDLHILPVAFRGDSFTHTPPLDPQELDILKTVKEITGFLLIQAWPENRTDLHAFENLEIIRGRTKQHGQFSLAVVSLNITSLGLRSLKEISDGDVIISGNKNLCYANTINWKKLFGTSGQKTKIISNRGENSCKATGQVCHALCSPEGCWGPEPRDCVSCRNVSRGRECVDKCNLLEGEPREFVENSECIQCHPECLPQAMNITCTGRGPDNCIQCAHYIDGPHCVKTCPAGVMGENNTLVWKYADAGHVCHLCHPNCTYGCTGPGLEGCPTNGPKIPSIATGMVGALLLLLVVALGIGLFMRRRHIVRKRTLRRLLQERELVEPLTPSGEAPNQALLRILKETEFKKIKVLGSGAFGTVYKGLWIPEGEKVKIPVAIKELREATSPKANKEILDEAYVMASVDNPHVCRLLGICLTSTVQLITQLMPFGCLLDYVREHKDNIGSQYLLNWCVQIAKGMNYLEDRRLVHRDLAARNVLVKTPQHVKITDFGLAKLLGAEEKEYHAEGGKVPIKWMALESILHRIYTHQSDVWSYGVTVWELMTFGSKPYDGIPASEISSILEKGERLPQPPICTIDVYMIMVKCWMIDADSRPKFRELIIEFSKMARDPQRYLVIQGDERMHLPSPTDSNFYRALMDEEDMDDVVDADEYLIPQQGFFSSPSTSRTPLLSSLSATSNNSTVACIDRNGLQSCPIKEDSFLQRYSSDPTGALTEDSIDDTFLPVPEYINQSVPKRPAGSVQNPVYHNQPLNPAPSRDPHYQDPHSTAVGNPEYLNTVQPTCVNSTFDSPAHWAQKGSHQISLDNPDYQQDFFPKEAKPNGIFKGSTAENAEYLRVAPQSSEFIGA

Usually IC50 stands for the concentration at which inhibition is half-maximal. Low readings indicate greater potency in that assay, high ones weaker potency in that assay. Take `Fc1ccc(Nc2ncnc3ccccc23)cc1Cl`: the IC50 in assay [1] is 4.51 µM; in assay [2], over 100 µM; in assay [3], 50.1 µM.
Consider `Fc1ccccc1Nc1ncnc2ccccc12`, for which the IC50 in assay [1] was found to be 10.6 µM; in assay [2], 69.3 µM; in assay [3] it was 93.9 µM.
Regarding `COc1cccc(Nc2ncnc3ccccc23)c1`, the IC50 came to 31.3 µM in assay [1], 24.2 µM in assay [2] and 15.6 µM in assay [3].
On the same counts, the results for `c1ccc(Nc2ncnc3ccccc23)cc1` are 35.6 µM, 65.8 µM and 35.6 µM.
On to `Cc1nc(Nc2ccc(F)c(Cl)c2)c2cc(NC(=O)CCN(C)C)ccc2n1`, for which the IC50 amounted to 0.11 µM in assay [1], 1.86 µM in assay [2] and 1.04 µM in assay [3]. For the same molecule, in assay [4], the inhibition entry is “Active”.
Consider `Cc1nc(Nc2ccc(F)c(Cl)c2)c2cc(NC(=O)CCN3CCOCC3)ccc2n1`, for which the results for the concentration for half-maximal inhibition (IC50) in assay [1], in assay [2] and in assay [3] were 1.14 µM, 1.98 µM and 3.26 µM, respectively.
For `CNCCC(=O)Nc1ccc2nc(C)nc(Nc3ccc(F)c(Cl)c3)c2c1` the same measures were 0.48 µM, 1.13 µM and 1.98 µM.
For `O=C(CCN1CCCCC1)Nc1ccc2ncnc(Nc3ccc(F)c(Cl)c3)c2c1` the same measures were 1.85 µM, 8.59 µM and 12.6 µM.
For `Fc1ccc(Nc2ncnc3ccccc23)cc1` the same measures were 23.5 µM, 29 µM and 22 µM.
Take `CN(C)CCC(=O)Nc1ccc2ncnc(Nc3ccc(F)c(Cl)c3)c2c1`: the results for the half-maximal inhibitory concentration (IC50) in assay [1], in assay [2] and in assay [3] were 0.36 µM, 9.36 µM and 9.54 µM, respectively. Further, the inhibition entry in assay [4] is “Active”.
Turning to `Clc1cccc(Nc2ncnc3ccccc23)c1`, the IC50 in assay [1] is 10.4 µM; in assay [2], 23.5 µM; in assay [3], 22 µM.
For `O=C(CCN1CCOCC1)Nc1ccc2ncnc(Nc3ccc(F)c(Cl)c3)c2c1` the same measures were 3.01 µM, 16.3 µM and 19.6 µM.
For `CNCCC(=O)Nc1ccc2ncnc(Nc3ccc(F)c(Cl)c3)c2c1` the same measures were 0.68 µM, 14.8 µM and 20.9 µM.
On the same counts, the results for `Fc1cccc(Nc2ncnc3ccccc23)c1` are 7.58 µM, 13.2 µM and 15 µM.
In the case of `Brc1cccc(Nc2ncnc3ccccc23)c1`, the IC50 in assay [1] turned out to be 10.6 µM; in assay [2] it was 78.6 µM; in assay [3] it was 24.7 µM.
On the same counts, the results for `Cc1nc(Nc2ccc(F)c(Cl)c2)c2cc(NC(=O)CCN3CCCCC3)ccc2n1` are 0.87 µM, 3.21 µM and 2.84 µM.
